A short description of data set [1]: Human plasma protein binding. Format: in vitro ADME.
A short description of data set [2]: Clinical pharmacokinetics of mirdametinib (Table A). The note with it: for Tmax / AUC(0-t) / Cmax: human, plasma; for Tmax: oral, read-out: Tmax [median (range)]; for AUC(0-t) / Cmax: po, steady state, BID oral dosing; for AUC(0-t): read-out: Steady-state exposure AUClast [geometric mean (geometric % CV)]; for Cmax: read-out: Steady-state exposure Cmax [geometric mean (geometric % CV)]. The format is in vivo, human. The protocol: Study treatment was administered orally at a twice daily (BID) dose specified in the table below. Dosing was on a 28-day Cycle (4-week course) with a 3 week on/1 week off schedule. The treatment period will last for up to 24 Cycles followed by a 30-day Safety Follow-Up period.

A short description of data set [3]: Excretion of radioactivity and unchanged mirdametinib. Format: in vivo.
[4] abbreviates: geometric least squares mean ratio.
[5] abbreviates: pediatric patients (2 to <18 years).

Where two headings read alike, the source gives them in different places.

As for `O=C(NOC[C@H](O)CO)c1ccc(F)c(F)c1Nc1ccc(I)cc1F` (single isomer, unassigned) [mirdametinib], the fraction unbound (in general, free concentration divided by total concentration) in data set [1] is less than 0.01. Also, in data set [2] (setting [4]), the “Food effect on AUCinf [GMR% (90% CI)]” value is listed as 93% (90%, 96%) and the “Food effect on Cmax [GMR% (90% CI)]” value is listed as 57% (54%, 61%). For the same molecule, in data set [2] (capsule), the time to peak (Tmax) (usually the time from dosing to the highest level) stood at 64.8 min. Besides, in data set [2] (tablet), the Tmax was determined as 49.8 min. In addition, the AUC(0-t) in data set [2] (adult patients (>18 years)) was found to be 431 ng·h/mL. Besides, the Cmax (commonly the peak of the concentration-time curve) in data set [2] (adult patients (≥18 years)) stood at 188 ng/mL. In addition, in data set [2] (setting [5]), the AUC(0-t) amounted to 459 ng·h/mL and the Cmax stood at 191 ng/mL. For the same molecule, the “Excretion: radioactivity in feces” value in data set [3] (feces) was “In feces: 27%”. Further, in data set [3] (urine), the “Excretion: radioactivity in urine” value was “In urine: 68%” and the “Excretion: unchanged mirdametinib in urine” value was “In urine: 0.7%”. Further, in data set [3] (urine and feces), the “Excretion: unchanged mirdametinib in urine and feces” value was “In urine and feces: 9%”.

For the origin of these results see patent US12390430B1 (SpringWorks Therapeutics, Inc., priority 2024, dated 2025).
